In article PMC10349806 (Nature Communications, 2023):
Several values for one entry are separate records, joined by “and”; a condition that tells them apart may be missing. Identical values can stand only once.

Tests used:
PfCRT variant H123A = biological target: T1, PfCRT variant H123A (Plasmodium falciparum, UniProt Q9N623, A220S/H123A/I356T/K76T/M74I/N326S/N75E/Q271E/R371I); assay: CQ uptake assay, oocytes expressing H123A; format: cell-based
T1 sequence (Q9N623 1-424 M74I/N75E/K76T/H123A/A220S/Q271E/N326S/I356T/R371I): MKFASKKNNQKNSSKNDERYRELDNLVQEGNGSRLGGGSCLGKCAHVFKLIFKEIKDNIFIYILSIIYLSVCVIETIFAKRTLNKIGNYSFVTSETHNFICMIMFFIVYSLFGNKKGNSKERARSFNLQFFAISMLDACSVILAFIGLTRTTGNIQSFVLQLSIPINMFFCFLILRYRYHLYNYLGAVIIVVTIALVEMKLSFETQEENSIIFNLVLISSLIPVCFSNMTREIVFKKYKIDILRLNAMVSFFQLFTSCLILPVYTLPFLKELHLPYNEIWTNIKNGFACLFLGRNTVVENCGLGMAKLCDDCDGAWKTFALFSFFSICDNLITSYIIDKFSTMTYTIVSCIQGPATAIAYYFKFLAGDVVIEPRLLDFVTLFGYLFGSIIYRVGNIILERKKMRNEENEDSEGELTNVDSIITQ
Method: (§1) Site-directed mutagenesis of PfCRT^Dd2 was performed as described using the megaprimer method with overlap extension[21],[54]. The primer pairs used are listed in Supplementary Table 6. Please note that a codon-optimized and oocyte-adapted version of PfCRT^Dd2 was used[22] (Supplementary Fig. 16). The resulting DNA fragment was cloned into the SP64T expression vector and verified by sequencing.
(§2) Oocytes were obtained as described previously. Briefly, adult (>2 years old) female X. laevis frogs (NASCO) were anesthetized in a cooled solution of ethyl 3-amino benzoate methanesulfonate (0.1%, w/v), followed by a surgical removal of parts of the ovary. The ovary lobes were carefully dissected and small pieces of oocytes were incubated in Ca^2+-free ND96 buffer (96 mM NaCl, 2 mM KCl, 1 mM MgCl2 buffered with 5 mM HEPES/NaOH, pH 7.5) supplemented with collagenase D (0.1%, w/v; Roche), BSA (0.5%, w/v), and 9 mm Na2HPO4 at 18 °C for 14-16 h while gentle shaking. After incubation, the oocytes were carefully washed several times with ND96 buffer (96 mM NaCl, 2 mM KCl, 1.8 mM CaCl2, 1 mM MgCl2 buffered with 5 mM HEPES/NaOH, pH 7.5) supplemented with 100 mg l^−1 gentamycin). Defolliculated and healthy-looking stage V-VI oocytes were manually selected for RNA microinjection. The RNA was generated as following: The codon-optimized sequences of PfCRT variants were cloned into the pSP64T expression vector. After vector linearization using the restriction endonucleases BamHI or SalI (New England Biolabs), transcription was performed using the in vitro SP6 mMessage mMachine Kit (Ambion)[34]. The obtained RNA was kept at −80 °C and diluted with nuclease-free water to a concentration of 0.6 μg μl^−1. Precision-bore glass capillary tubes (3.5-inch glass capillaries; Drummond Scientific Co.) were pulled on a vertical puller (P-87 Flaming/Brown micropipette puller, Sutter Instrument Co.), graduated, and placed on a microinjector (Nanoject II Auto-Nanoliter Injector, Drummond Scientific Co.). 50 nl of nuclease-free water alone (control oocytes) or 50 nl of 0.6 μg μl^−1 RNA were injected under stereomicroscopic control. Injected oocytes were incubated for 46–72 h at 18 °C with twice-daily buffer changes before usage in experiments.
Drug uptake assays were performed as described previously[21],[22],[24],[34]. […] The direction of radio-labeled drug transport is here from the mostly acidic extracellular solution (pH 4.5 or 6.0, as indicated) into the oocyte cytosol (pH ∼ 7.2), which corresponds to the efflux of drug from the acidic digestive vacuole (pH 5.2) into the parasite cytoplasm (pH 7.2). The topology of PfCRT in the oolemma is such that both the N- and C-terminus face the extracellular milieu[3],[22]. In the parasite, the N- and C-terminus face the lumen of the digestive vacuole. […] For determination of the amount of drug uptake for each oocyte, the reaction medium was removed and the oocytes were washed three times with 2 ml of ice-cold ND96 buffer. Each oocyte was individually transferred to a scintillation vial containing 5% sodium dodecyl sulfate (200 μl) for lysis. […] Oocytes that were injected with water instead of RNA were analyzed in parallel, representing the uptake of a drug by diffusion and/or endogenous permeation pathways. […] The specific PfCRT-mediated uptake was determined by subtracting the corresponding background value measured in water-injected oocytes from that of PfCRT-expressing oocytes. […]

PfCRT variant K80A = assay: CQ uptake assay, oocytes expressing K80A; format: cell-based, Plasmodium falciparum
Method: as §1, §2
Drug uptake assays were performed as described previously[21],[22],[24],[34]. […] The direction of radio-labeled drug transport is here from the mostly acidic extracellular solution (pH 4.5 or 6.0, as indicated) into the oocyte cytosol (pH ∼ 7.2), which corresponds to the efflux of drug from the acidic digestive vacuole (pH 5.2) into the parasite cytoplasm (pH 7.2). The topology of PfCRT in the oolemma is such that both the N- and C-terminus face the extracellular milieu[3],[22]. In the parasite, the N- and C-terminus face the lumen of the digestive vacuole. CQ uptake kinetics were performed by incubating oocytes in ND96 buffer adjusted to a pH of 4.5, 5.0, 5.5, or 6.0 and supplemented with 50 nM [^3H]CQ and one of 7 different CQ concentrations (10 µM, 50 µM, 100 µM, 200 µM, 300 µM, 400 µM, 500 µM CQ). The reaction was stopped at the 60 min time point, which is in the linear uptake range[22],[34] (Supplementary Fig. 17). For determination of the amount of drug uptake for each oocyte, the reaction medium was removed and the oocytes were washed three times with 2 ml of ice-cold ND96 buffer. Each oocyte was individually transferred to a scintillation vial containing 5% sodium dodecyl sulfate (200 μl) for lysis. The radioactivity of each sample was measured using a liquid scintillation analyzer Tri-Carb 4910 TR (PerkinElmer). Oocytes that were injected with water instead of RNA were analyzed in parallel, representing the uptake of a drug by diffusion and/or endogenous permeation pathways. The resulting value represents the “background“ level of drug accumulation in oocytes (in-depth discussion in[22]). […]

[1] = K80A, 50 µM CQ, 1 h, mean ± SEM

For CCN(CC)CCCC(C)Nc1ccnc2cc(Cl)ccc12 (centres unmarked) [CQ, chloroquine], the “Activity at pH 6.0” value (PfCRT variant H123A; H123A, 50 µM CQ, 1 h, mean ± SEM) was 4.85 ± 0.43 pmol h-1 oocyte-1, the R-value (PfCRT variant H123A; H123A, CQ transport at pH 4.5 / pH 6.0) was 0.36 ± 0.09 and the “H123A transport activity pH 4.5” value (PfCRT variant H123A; pH 4.5, single replicates, Fig 1d left) was 1.12 pmol oocyte-1 h-1 and 2.16 pmol oocyte-1 h-1 and 1.35 pmol oocyte-1 h-1 and 2.48 pmol oocyte-1 h-1. For the same compound, the “H123A R-value” (PfCRT variant H123A; pH 4.5 vs pH 6.0, Fig 1d left) was 0.44 and 0.35 and 0.42 and 0.27 and 0.52, the “H123A transport activity pH 6.0” value (PfCRT variant H123A; pH 6.0, single replicates, Fig 1d left) was 6.18 pmol oocyte-1 h-1 and 3.21 pmol oocyte-1 h-1 and 5.14 pmol oocyte-1 h-1 and 4.96 pmol oocyte-1 h-1 and 4.77 pmol oocyte-1 h-1 and the “Activity at pH 4.5” value (PfCRT variant K80A; [1]) was 1.71 ± 0.08 pmol h-1 oocyte-1. The “Activity at pH 6.0” value (PfCRT variant K80A; [1]) was 2.26 ± 0.12 pmol h-1 oocyte-1, the R-value (PfCRT variant K80A; K80A, CQ transport at pH 4.5 / pH 6.0) was 0.76 ± 0.04 and the “K80A transport activity pH 4.5” value (PfCRT variant K80A; pH 4.5, individual replicates (Fig 6a)) was 1.97 pmol oocyte-1 h-1 and 1.67 pmol oocyte-1 h-1 and 1.57 pmol oocyte-1 h-1 and 1.62 pmol oocyte-1 h-1. For the same compound, the “K80A transport activity pH 6.0” value (PfCRT variant K80A; pH 6.0, individual replicates (Fig 6a)) was 2.59 pmol oocyte-1 h-1 and 1.89 pmol oocyte-1 h-1 and 2.31 pmol oocyte-1 h-1 and 2.26 pmol oocyte-1 h-1 and the “K80A R-value” (PfCRT variant K80A; transport activity pH 4.5 relative to pH 6.0 (Fig 6a)) was 0.76 and 0.88 and 0.68 and 0.72.
